{
  "source": "BindingDB's records for doi:10.1021/jm050513m",
  "about": "(The University of Texas At Houston, 2005)",
  "note": "Several values for one entry are separate records, joined by “and”; a condition that tells them apart may be missing. Identical values can stand only once. Numbered stars: 1 amine (or outer) side, 2 acyl side, 3 side chain; on linkers, the order of the positions; unused ones are H or OH. Square brackets hold non-standard residues; d marks the D form. Peptide text beside a SMILES is read from it. * marks the point of attachment. ξ: configuration not given here. pY = N[C@@H](Cc1ccc(OP(=O)(O)O)cc1)C(=O)O; NH(1S-phenylethyl) = C[C@H](N*)c1ccccc1; X2 = O=C([C@H]1CCCN([*:1])C1)[*:2]; X3 = O=C(CN1CCN([*:1])CC1)[*:2]; Cha = N[C@@H](CC1CCCCC1)C(=O)O; Ile(3ξ) = CCC(C)[C@H](N)C(=O)O; Thr(3ξ) = CC(O)[C@H](N)C(=O)O; Pip = O=C(O)[C@@H]1CCCCN1; Ac6c = NC1(C(=O)O)CCCCC1; Cbz = O=C(OCc1ccccc1)*; NHBn = c1ccc(CN*)cc1; Propionyl = CCC(=O)*; NEt2 = CCN(CC)*",
  "data": [
    {"target": "Signal transducer and activator of transcription 3 (Mus musculus, UniProt P42227)", "sequence (P42227 whole entry)": "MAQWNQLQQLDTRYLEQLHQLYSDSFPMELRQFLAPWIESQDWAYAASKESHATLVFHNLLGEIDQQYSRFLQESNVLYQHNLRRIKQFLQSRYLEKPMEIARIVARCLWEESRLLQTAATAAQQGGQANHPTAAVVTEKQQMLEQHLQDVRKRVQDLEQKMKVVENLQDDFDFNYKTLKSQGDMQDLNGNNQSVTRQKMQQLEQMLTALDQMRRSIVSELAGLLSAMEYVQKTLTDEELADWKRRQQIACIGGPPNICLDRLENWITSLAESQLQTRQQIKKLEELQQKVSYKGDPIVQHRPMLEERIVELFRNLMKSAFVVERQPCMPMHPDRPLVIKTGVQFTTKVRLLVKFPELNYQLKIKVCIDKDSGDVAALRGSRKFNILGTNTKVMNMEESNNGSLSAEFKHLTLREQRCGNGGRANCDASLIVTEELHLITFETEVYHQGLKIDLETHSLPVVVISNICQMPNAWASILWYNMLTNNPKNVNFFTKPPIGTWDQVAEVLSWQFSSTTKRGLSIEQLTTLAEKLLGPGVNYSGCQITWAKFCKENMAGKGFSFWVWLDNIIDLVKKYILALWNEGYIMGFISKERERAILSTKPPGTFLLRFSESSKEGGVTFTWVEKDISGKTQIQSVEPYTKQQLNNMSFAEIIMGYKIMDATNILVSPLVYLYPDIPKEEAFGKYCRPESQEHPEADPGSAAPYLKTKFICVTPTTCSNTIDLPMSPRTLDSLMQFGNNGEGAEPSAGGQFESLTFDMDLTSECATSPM", "assay": "Fluorescence Polarization Assay", "conditions": "not given", "experimental": "(§1) Fluorescence polarization (FP) binding assay is utilizing the intrinsic property of the fluorescent probe, which will have low polarization value when free in solution. On binding to a target, the polarization of the probe will increase. Reaction mixtures of full length STAT3 alpha and the probe were placed in wells of a 96-well microtiter plate. The test peptide solution was added to each well. Fluorescence polarization was then read in a Tecan Polarian plate reader. The IC50 values were obtained from nonlinear regression analysis in the one-site competition mode. Peptides were assayed three times using three separate Stat3-probe preparations. IC50 values are reported as the mean of three IC50 values +/- the standard deviation.", "units": {"IC50": "nM"}, "values": [
      {"smiles": "CCN(CC)C(=O)[C@H](CCC(N)=O)NC(=O)[C@@H]1CCCN1C(=O)[C@H](CC(C)C)NC(=O)[C@H](Cc1ccc(OP(=O)(O)O)cc1)NC(C)=O", "note": "[4-[(2S)-2-{[(2S)-1-[(2S)-2-{[(1S)-3-carbamoyl-1-(diethylcarbamoyl)propyl]carbamoyl}pyrrolidin-1-yl]-4-methyl-1-oxopentan-2-yl]carbamoyl}-2-acetamidoethyl]phenoxyphosphonic acid] (Ac-[pY]LPQ-NEt2)", "IC50": 4220},
      {"smiles": "CNC(=O)[C@H](CCC(N)=O)NC(=O)[C@@H]1CCCN1C(=O)[C@H](CC(C)C)NC(=O)[C@H](Cc1ccc(OP(=O)(O)O)cc1)NC(C)=O", "note": "[4-[(2S)-2-{[(2S)-1-[(2S)-2-{[(1S)-3-carbamoyl-1-(methylcarbamoyl)propyl]carbamoyl}pyrrolidin-1-yl]-4-methyl-1-oxopentan-2-yl]carbamoyl}-2-acetamidoethyl]phenoxyphosphonic acid] (Ac-[pY]LPQ-NHMe)", "IC50": 882},
      {"smiles": "CC(=O)N[C@@H](Cc1ccc(OP(=O)(O)O)cc1)C(=O)N[C@@H](CC(C)C)C(=O)N1CCC[C@H]1C(=O)NC1CCCC(C(N)=O)C1", "note": "(stereo partly drawn) [4-[(2S)-2-{[(2S)-1-[(2S)-2-[(3-carbamoylcyclohexyl)carbamoyl]pyrrolidin-1-yl]-4-methyl-1-oxopentan-2-yl]carbamoyl}-2-acetamidoethyl]phenoxyphosphonic acid]", "IC50": 9810},
      {"smiles": "CC(=O)N[C@@H](Cc1ccc(OP(=O)(O)O)cc1)C(=O)N[C@@H](CC(C)C)C(=O)N1CCC[C@H]1C(=O)N[C@@H](CCC(N)=O)C(=O)NCc1ccccc1", "note": "(Ac-[pY]LPQ-NHBn)", "IC50": 409},
      {"smiles": "CC(=O)N[C@@H](Cc1ccc(OP(=O)(O)O)cc1)C(=O)N[C@@H](CC(C)C)C(=O)N1CCC[C@H]1C(=O)N[C@@H](CCC(N)=O)C(=O)O", "note": "[(2S)-4-carbamoyl-2-{[(2S)-1-[(2S)-2-[(2S)-2-acetamido-3-[4-(phosphonooxy)phenyl]propanamido]-4-methylpentanoyl]pyrrolidin-2-yl]formamido}butanoic acid] (Ac-[pY]LPQ-OH)", "IC50": 748},
      {"smiles": "CC(=O)N[C@@H](Cc1ccc(OP(=O)(O)O)cc1)C(=O)N[C@@H](CC(C)C)C(=O)N1CCC[C@H]1C(=O)N[C@@H](CCC(N)=O)C(=O)N[C@@H](C)c1ccccc1", "note": "[4-[(2S)-2-{[(2S)-1-[(2S)-2-{[(1S)-3-carbamoyl-1-{[(1S)-1-phenylethyl]carbamoyl}propyl]carbamoyl}pyrrolidin-1-yl]-4-methyl-1-oxopentan-2-yl]carbamoyl}-2-acetamidoethyl]phenoxyphosphonic acid] (Ac-[pY]LPQ-{NH(1S-phenylethyl)})", "IC50": 596}
    ]},
    {"target": "Signal transducer and activator of transcription 3 (Mus musculus, UniProt P42227)", "assay": "Fluorescence Polarization Assay", "conditions": "pH 7.5; 22 °C", "experimental": "as §1", "values": [
      {"smiles": "CCC(=O)N[C@@H](Cc1ccc(OP(=O)(O)O)cc1)C(=O)N[C@@H](CC(C)C)C(=O)N1CCC[C@H]1C(=O)N[C@@H](CCC(N)=O)C(=O)N[C@H](C(N)=O)C(C)O", "note": "(stereo partly drawn) [4-[(2S)-2-{[(2S)-1-[(2S)-2-{[(1S)-3-carbamoyl-1-{[(1S,2S)-1-carbamoyl-2-hydroxypropyl]carbamoyl}propyl]carbamoyl}pyrrolidin-1-yl]-4-methyl-1-oxopentan-2-yl]carbamoyl}-2-propanamidoethyl]phenoxyphosphonic acid] (Propionyl-[pY]LPQ[Thr(3ξ)]-NH2)", "IC50": "497 nM"},
      {"smiles": "CC(C)C[C@H](NC(=O)[C@H](Cc1ccc(OP(=O)(O)O)cc1)NC(=O)OCc1ccccc1)C(=O)N1CCC[C@H]1C(=O)N[C@@H](CCC(N)=O)C(=O)N[C@H](C(N)=O)C(C)O", "note": "(stereo partly drawn) [4-[(2S)-2-{[(benzyloxy)carbonyl]amino}-2-{[(2S)-1-[(2S)-2-{[(1S)-3-carbamoyl-1-{[(1S,2S)-1-carbamoyl-2-hydroxypropyl]carbamoyl}propyl]carbamoyl}pyrrolidin-1-yl]-4-methyl-1-oxopentan-2-yl]carbamoyl}ethyl]phenoxyphosphonic acid] (Cbz-[pY]LPQ[Thr(3ξ)]-NH2)", "IC50": "750 nM"},
      {"smiles": "CC(=O)N[C@@H](Cc1ccc(OP(=O)(O)O)cc1)C(=O)N[C@@H](CC(C)C)C(=O)NC1(C(=O)N[C@@H](CCC(N)=O)C(=O)N[C@H](C(N)=O)C(C)O)CCCCC1", "note": "(stereo partly drawn) [4-[(2S)-2-{[(1S)-1-[(1-{[(1S)-3-carbamoyl-1-{[(1S,2S)-1-carbamoyl-2-hydroxypropyl]carbamoyl}propyl]carbamoyl}cyclohexyl)carbamoyl]-3-methylbutyl]carbamoyl}-2-acetamidoethyl]phenoxyphosphonic acid] (Ac-[pY]L[Ac6c]Q[Thr(3ξ)]-NH2)", "IC50": "13400 nM"},
      {"smiles": "CCC(C)[C@H](NC(=O)[C@H](Cc1ccc(OP(=O)(O)O)cc1)NC(C)=O)C(=O)N1CCC[C@H]1C(=O)N[C@@H](CCC(N)=O)C(=O)N[C@H](C(N)=O)C(C)O", "note": "(stereo partly drawn) [4-[(2S)-2-{[(2S)-1-[(2S)-2-{[(1S)-3-carbamoyl-1-{[(1S)-1-carbamoyl-2-hydroxypropyl]carbamoyl}propyl]carbamoyl}pyrrolidin-1-yl]-3-methyl-1-oxopentan-2-yl]carbamoyl}-2-acetamidoethyl]phenoxyphosphonic acid] (Ac-[pY][Ile(3ξ)]PQ[Thr(3ξ)]-NH2)", "IC50": "1070 nM"},
      {"smiles": "CC(=O)N[C@@H](Cc1ccc(OP(=O)(O)O)cc1)C(=O)N[C@@H](CC(C)C)C(=O)N1CCCC[C@H]1C(=O)N[C@@H](CCC(N)=O)C(=O)N[C@H](C(N)=O)C(C)O", "note": "(stereo partly drawn) [4-[(2S)-2-{[(2S)-1-[(2S)-2-{[(1S)-3-carbamoyl-1-{[(1S,2S)-1-carbamoyl-2-hydroxypropyl]carbamoyl}propyl]carbamoyl}piperidin-1-yl]-4-methyl-1-oxopentan-2-yl]carbamoyl}-2-acetamidoethyl]phenoxyphosphonic acid] (Ac-[pY]L[Pip]Q[Thr(3ξ)]-NH2)", "IC50": "1240 nM"},
      {"smiles": "CC(=O)N[C@@H](Cc1ccc(OP(=O)(O)O)cc1)C(=O)N[C@@H](CC(C)C)C(=O)N1CCC[C@H]1C(=O)N[C@@H](CCC(=O)N(C)C)C(=O)N[C@H](C(N)=O)C(C)O", "note": "(stereo partly drawn) [4-[(2S)-2-{[(2S)-1-[(2S)-2-{[(1S)-1-{[(1S,2S)-1-carbamoyl-2-hydroxypropyl]carbamoyl}-3-(dimethylcarbamoyl)propyl]carbamoyl}pyrrolidin-1-yl]-4-methyl-1-oxopentan-2-yl]carbamoyl}-2-acetamidoethyl]phenoxyphosphonic acid] (Ac-[pY]LPE(NMe2)[Thr(3ξ)]-NH2)", "IC50": "80000 nM"},
      {"smiles": "CC(=O)N[C@@H](Cc1ccc(OP(=O)(O)O)cc1)C(=O)N[C@@H](CC(C)C)C(=O)N1CCC[C@@H]1C(=O)N[C@@H](CCC(N)=O)C(=O)N[C@H](C(N)=O)C(C)O", "note": "(stereo partly drawn) [4-[(2S)-2-{[(2S)-1-[(2R)-2-{[(1S)-3-carbamoyl-1-{[(1S,2S)-1-carbamoyl-2-hydroxypropyl]carbamoyl}propyl]carbamoyl}pyrrolidin-1-yl]-4-methyl-1-oxopentan-2-yl]carbamoyl}-2-acetamidoethyl]phenoxyphosphonic acid]", "IC50": "> 100000 nM"},
      {"smiles": "CC(=O)N[C@@H](Cc1ccc(OP(=O)(O)O)cc1)C(=O)N[C@@H](CC(C)C)C(=O)N1CCC[C@H]1C(=O)N[C@@H](CCC(N)=O)C(=O)N[C@H](C(N)=O)C(C)O", "note": "(stereo partly drawn) [4-[(2S)-2-{[(2S)-1-[(2S)-2-{[(1S)-3-carbamoyl-1-{[(1S,2S)-1-carbamoyl-2-hydroxypropyl]carbamoyl}propyl]carbamoyl}pyrrolidin-1-yl]-4-methyl-1-oxopentan-2-yl]carbamoyl}-2-acetamidoethyl]phenoxyphosphonic acid]", "IC50": "739 nM"},
      {"smiles": "CC(=O)N[C@@H](Cc1ccc(OP(=O)(O)O)cc1)C(=O)N[C@@H](CC(C)C)C(=O)N1CCC[C@H](C(=O)N[C@@H](CCC(N)=O)C(=O)N[C@H](C(N)=O)C(C)O)C1", "note": "(stereo partly drawn) [23, Ac-pTyr-Leu-Nip-Gln-Thr-NH2-2] (Ac-[pY]L[X2]Q[Thr(3ξ)]-NH2)", "IC50": "38600 nM and 33100 nM"},
      {"smiles": "CC(=O)N[C@@H](Cc1ccc(OP(=O)(O)O)cc1)C(=O)N[C@@H](CC(C)C)C(=O)N1CCN(CC(=O)N[C@@H](CCC(N)=O)C(=O)N[C@H](C(N)=O)C(C)O)CC1", "note": "(stereo partly drawn) [4-[(2S)-2-{[(2S)-1-[4-({[(1S)-3-carbamoyl-1-{[(1S,2S)-1-carbamoyl-2-hydroxypropyl]carbamoyl}propyl]carbamoyl}methyl)piperazin-1-yl]-4-methyl-1-oxopentan-2-yl]carbamoyl}-2-acetamidoethyl]phenoxyphosphonic acid] (Ac-[pY]L[X3]Q[Thr(3ξ)]-NH2)", "IC50": "57100 nM"},
      {"smiles": "CC(=O)N[C@@H](Cc1ccc(OP(=O)(O)O)cc1)C(=O)N[C@@H](Cc1ccccc1)C(=O)N1CCC[C@H]1C(=O)N[C@@H](CCC(N)=O)C(=O)N[C@H](C(N)=O)C(C)O", "note": "(stereo partly drawn) [4-[(2S)-2-{[(2S)-1-[(2S)-2-{[(1S)-3-carbamoyl-1-{[(1S,2S)-1-carbamoyl-2-hydroxypropyl]carbamoyl}propyl]carbamoyl}pyrrolidin-1-yl]-1-oxo-3-phenylpropan-2-yl]carbamoyl}-2-acetamidoethyl]phenoxyphosphonic acid] (Ac-[pY]FPQ[Thr(3ξ)]-NH2)", "IC50": "1890 nM"},
      {"smiles": "CNC(=O)CC[C@H](NC(=O)[C@@H]1CCCN1C(=O)[C@H](CC(C)C)NC(=O)[C@H](Cc1ccc(OP(=O)(O)O)cc1)NC(C)=O)C(=O)N[C@H](C(N)=O)C(C)O", "note": "(stereo partly drawn) [4-[(2S)-2-{[(2S)-1-[(2S)-2-{[(1S)-1-{[(1S,2S)-1-carbamoyl-2-hydroxypropyl]carbamoyl}-3-(methylcarbamoyl)propyl]carbamoyl}pyrrolidin-1-yl]-4-methyl-1-oxopentan-2-yl]carbamoyl}-2-acetamidoethyl]phenoxyphosphonic acid] (Ac-[pY]LPE(NHMe)[Thr(3ξ)]-NH2)", "IC50": "18100 nM"},
      {"smiles": "CC(=O)N[C@@H](Cc1ccc(OP(=O)(O)O)cc1)C(=O)N[C@@H](CC1CCCCC1)C(=O)N1CCC[C@H]1C(=O)N[C@@H](CCC(N)=O)C(=O)N[C@H](C(N)=O)C(C)O", "note": "(stereo partly drawn) [4-[(2S)-2-{[(2S)-1-[(2S)-2-{[(1S)-3-carbamoyl-1-{[(1S,2S)-1-carbamoyl-2-hydroxypropyl]carbamoyl}propyl]carbamoyl}pyrrolidin-1-yl]-3-cyclohexyl-1-oxopropan-2-yl]carbamoyl}-2-acetamidoethyl]phenoxyphosphonic acid] (Ac-[pY][Cha]PQ[Thr(3ξ)]-NH2)", "IC50": "910 nM"}
    ]}
  ]
}
